Data taken from patent EP1591107A1, “Process for the selective increase of a release rate of an active material from a pharmaceutical composition” (Pfizer GmbH Arzneimittelwerk Gödecke, priority 2004, dated 2005).
Values after ≈ are worked out from the molar mass of the structure shown. Counter-ions that a name gives are not always drawn. Like-named read-outs stand apart in the source and are kept apart here.

Tests used:
[1] = in water, classification taken from the European Pharmacopoeia, cited from earlier work
[2] = Solubility in water (European Pharmacopoeia solubility classes)

COc1ccc([C@@H]2Sc3ccccc3N(CCN(C)C)C(=O)[C@@H]2OC(C)=O)cc1 [diltiazem hydrochloride]
solubility class according to the European Pharmacopoeia ([1]; hydrochloride): freely soluble
solubility class according to the European Pharmacopoeia ([1]; listed as Diltiazem® hydrochloride, hydrochloride): very soluble

CC(C)C[C@H](CN)CC(=O)O [pregabalin]
solubility class according to the European Pharmacopoeia [1]: sparingly soluble
volume of water in which 1 g is soluble ([2]; 1 g of active material, water): 31 mL
solubility class according to the definition of the European Pharmacopoeia ([2]; class derived from the printed solubility in water): sparingly soluble
solubility ([2]; water): 32.1 mg/mL (≈ 202 mM)
